Experimental data: PMC6372667 (Experimental & Molecular Medicine, 2019)
Where two headings read alike, the source gives them in different places.

Tests used:
[1] = target: T1, BACE1 (human recombinant β-secretase) (Homo sapiens, UniProt P56817); assay: In vitro BACE1 FRET enzyme assay; type: biochemical; conditions: mean ± S.D. of three experiments
Excerpt: (§1) BACE1 (human recombinant β-secretase) ([…]) and the BACE1 FRET (fluorescence resonance energy transfer) assay kit Red were purchased from ThermoFisher Scientific (P2985; Waltham, MA, USA). […] For the cell culture experiment, Dulbecco’s modified Eagle’s medium (DMEM), Opti-MEM, fetal bovine serum (FBS), and penicillin/streptomycin were obtained from Capricorn Scientific (Ebsdorfergrund, Germany). β-secretase inhibitor III (β-SI) was purchased from Calbiochem (Darmstadt, Germany). The protease inhibitor mixture (a mixture of AEBSF, pepstatin A, E-64, bestain, leupeptin, and aprotinin) was purchased from Sigma-Aldrich (St. Louis, MO, USA). Enzyme-linked immunosorbent assay (ELISA) kits for Aβ40 and Aβ42 were obtained from IBL (Kunma, Japan). All chemicals and solvents used were reagent grade, purchased from commercial sources, and used as received.
The BACE1 FRET assay was carried out according to the manufacturer’s instructions with slight modifications as previously described. The assay was performed in a […] black plate using a multi-pipette.

[2] = target: T2, Electric eel AChE (Electrophorus electricus, UniProt O42275); assay: In vitro cholinesterase enzyme assay (Ellman), AChE; type: biochemical
T2 construct: purchased Sigma-Aldrich Co
Excerpt: as §1
(§2) The inhibitory activities of pterosin derivatives against cholinesterases were measured using the method developed by Ellman et al.[32]. The reaction mixture contained 140 μL of sodium phosphate buffer (pH 8.0), 20 μL of test sample solution (final concentration of the compound 100 μM), and 20 μL of AChE or BChE solution, mixed and incubated for 15 min at room temperature. […] The reactions were initiated following the addition of 10 μL of DTNB and 10 μL of acetyl thiocholine iodide for the AChE assay or butyryl thiocholine chloride for the BChE assay in 96-well microplates, which were incubated for 15 min.

[3] = target: T3, horse serum BChE (Equus caballus, UniProt P81908); assay: In vitro cholinesterase enzyme assay (Ellman), BChE; type: biochemical
T3 construct: horse serum BChE (EC 3.1.1.8); purchased Sigma-Aldrich Co; host or cells: horse serum
Excerpt: as §1, §2

[4] = system: SH-SY5Y human neuroblastoma; assay: MTT cytotoxicity assay, SH-SY5Y; type: cell-based; conditions: 24 h
Method: (§3) Cytotoxicity was assessed using the MTT assay. Briefly, the cells were seeded into a 96-well plate at a density of 1×10^5 cells per well in 100 µL of corresponding media and incubated at 37 °C in an incubator under 5% CO2 tension for 24 h. The culture media were then replaced with 100 µL of fresh serum-free media in the presence of varied concentrations of pterosin derivatives, and cells were incubated for an additional 24 h. The control was treated with an equal amount of DMSO present in the assay for a 5 mM concentration. Then, 100 µL of MTT solution (0.5 mg/mL in Phosphate Buffered Saline (PBS)) was added to each culture. To measure the proportion of surviving cells, the media were replaced with 100 µL of DMSO 2 h after the administration of MTT solution. The absorbance was measured at 570 nm using a spectrophotometric plate reader (Molecular Devices, Sunnyvale, CA, USA).

[5] = system: C6 rat glial cells; assay: MTT cytotoxicity assay, C6; type: cell-based; conditions: 24 h
Method: as §3

[6] = system: NIH3T3 mouse embryo fibroblasts; assay: MTT cytotoxicity assay, NIH3T3; type: cell-based; conditions: 24 h
Method: as §3

[7] = system: B16F10 mouse melanoma; assay: MTT cytotoxicity assay, B16F10; type: cell-based; conditions: 24 h
Method: as §3

[8] = system: SH-SY5Y, C6, NIH3T3 and B16F10 cell lines; assay: MTT cytotoxicity assay, all cell lines tested; type: cell-based
Method: as §3

[9] = target: T1, BACE1 (human recombinant β-secretase); assay: Kinetic analysis of BACE1 inhibition (Dixon and Lineweaver−Burk plots); type: biochemical; conditions: for Inhibition type BACE1: Dixon and Lineweaver−Burk plots; for Ki: determined by Dixon plot, read-out: Ki BACE1
Method: (§4) The Ki was determined by interpretation of the Dixon plot, with the value of the x-axis intercept taken as −Ki.
Dixon plots for BACE1 inhibition by pterosin derivatives.
Dixon plots for BACE1 inhibition by pteroside derivatives.

[10] = target: T2, Electric eel AChE; assay: Kinetic analysis of AChE inhibition (Dixon and Lineweaver−Burk plots); type: biochemical; conditions: for Inhibition type AChE: Dixon and Lineweaver−Burk plots; for Ki: determined by Dixon plot, read-out: Ki AChE
Method: as §4
Dixon plots for AChE inhibition by pterosin derivatives. (2S,3R)-Pterosin C (A), (2R,3R)-pterosin C (B), and (2R)-pterosin B (C) were tested in the presence of substrate concentrations of 0.1 mM (●), 0.3 mM (○), and 0.6 mM (▼). Lineweaver-Burk plots for AChE inhibition were generated with inhibitor concentrations of 0 µM (Δ), 4 µM (▼), 20 µM (○), and 100 µM (●) for (2S,3R)-pterosin C (D) and (2R,3R)-pterosin C (E); and 0 µM (Δ), 2 µM (▼), 10 µM (○), and 50 µM (●) for (2R)-pterosin B (F).
Dixon plots for AChE inhibition by pteroside derivatives. (2R)-pteroside B (A), (2R,3R)-pteroside C (B), and (3S)-pteroside D (C) were tested in the presence of substrate concentrations of 0.1 mM (●), 0.3 mM (○), and 0.6 mM (▼). Lineweaver-Burk plots for AChE inhibition were generated with inhibitor concentrations of 0 µM (Δ), 0.8 µM (▼), 4 µM (○), and 20 µM (●) for (2R)-pteroside B (D), (2R,3R)-pteroside C (E), and (3S)-pteroside D (F).

[11] = target: T3, horse serum BChE; assay: Kinetic analysis of BChE inhibition (Dixon and Lineweaver−Burk plots); type: biochemical; conditions: for Inhibition type BChE: Dixon and Lineweaver−Burk plots; for Ki: determined by Dixon plot, read-out: Ki BChE
Method: as §4
Dixon plots for BChE inhibition by pterosin derivatives. (2S,3R)-Pterosin C (A), (2R,3R)-pterosin C (B), and (2R)-pterosin B (C) were tested in the presence of substrate concentrations of 0.2 mM (●), 0.4 mM (○), and 0.8 mM (▼).
Dixon plots for BChE inhibition by pteroside derivatives. (2R)-pteroside B (A), (2R,3R)-pteroside C (B), and (3S)-pteroside D (C) were tested in the presence of substrate concentrations of 0.2 mM (●), 0.4 mM (○), and 0.8 mM (▼). Lineweaver-Burk plots for BChE inhibition were generated with inhibitor concentrations of 0 µM (Δ), 4 µM (▼), 20 µM (○), and 100 µM (●) for (2R)-pteroside B (D); 0 µM (Δ), 0.8 µM (▼), 4 µM (○), and 20 µM (●) for (2R,3R)-pteroside C (E) and (3S)-pteroside D (F).

[12] = in vitro; type: in vitro ADME; conditions: for BBB permeation class: classified by Pe, given in words; for Papp at 4 h, 25 µg/mL: pig, PAMPA, pH 7.4, 25 °C, mean ± SD of quadruple experiments, read-out: PAMPA-BBB permeability Pe
Method: PAMPA (parallel artificial membrane permeation assay) was used as a high-throughput assay to predict BBB permeation. Porcine polar brain lipid (PBL) was used as an artificial membrane to predict BBB permeation. Initially, the test compound was dissolved in DMSO at 5 mg/mL. This compound stock solution (10 µL) was diluted 200-fold in a universal buffer at pH 7.4 and mixed with a multi 8-channel pipette to obtain the secondary stock solution (final concentration 25 µg/mL). The secondary stock solution (200 µL) was placed in the donor wells. The filter membrane was coated with PBL in dodecane (4 mL volume of 20 mg/mL PBL in dodecane), and 5 µL of BBB-1 lipid solution was spread on PBL by pipette. The acceptor well was filled with […] of Acceptor Sink Buffer. The acceptor filter plate was cautiously positioned on the donor plate to assemble a “sandwich” (comprising an aqueous acceptor, artificial lipid membrane and aqueous donor with test compound on the top, middle and bottom, respectively). The test compound diffuses from the donor well to the acceptor well through the lipid membrane. After 4 h of incubation at pH 7.4 and 25 °C, the concentration of the compound in the acceptor, donor, reference and blank wells was estimated with a UV plate reader, Epoch Microplate Spectrophotometer (BioTek Instruments, Inc., Winooski, VT, USA). […] Samples were analyzed in quadruplets, and the average of the four runs was reported. To monitor the consistency of the analysis set, quality control standards were run with each sample set.
PAMPA-BBB, an in vitro artificial membrane permeability assay for the BBB, is one of the most reliable physicochemical screening tools in the early stage discovery of CNS-targeted drugs. The PAMPA-BBB system models the transcellular passive diffusion of chemicals across the BBB and measures strictly passive transport mechanisms via an artificial lipid membrane on effective permeability (Pe, cm/s).

[13] = target: BACE1; conditions: cited from earlier work
[14] = system: AChE; conditions: cited from earlier work
[15] = system: BChE; set-up: method as in PMID 18274286; conditions: cited from earlier work
[16] = set-up: method as in PMID 23565574; conditions: PAMPA-BBB ref 49; cited from earlier work
[17] = system: aged triple transgenic mouse models of AD (3xTg-AD); conditions: 25 mg/kg i.p. every 48 h for 3 months, mice 21–24 months old ref 48; cited from earlier work
[18] = system: mouse models of diabetes; set-up: method as in PMID 23069626; conditions: cited from earlier work
[19] = system: mouse model of osteoarthritis; set-up: method as in PMID 27009967; conditions: 15 μL of 900 μM intra-articular, three times per week, 8–13 weeks ref 28; cited from earlier work
[20] = mean ± S.D. of three experiments, read-out: IC50 AChE
[21] = mean ± S.D. of three experiments, read-out: IC50 BChE
[22] = oral 100 mg/kg/day for 4 weeks ref 29, 30

T2 sequence (O42275 24-633): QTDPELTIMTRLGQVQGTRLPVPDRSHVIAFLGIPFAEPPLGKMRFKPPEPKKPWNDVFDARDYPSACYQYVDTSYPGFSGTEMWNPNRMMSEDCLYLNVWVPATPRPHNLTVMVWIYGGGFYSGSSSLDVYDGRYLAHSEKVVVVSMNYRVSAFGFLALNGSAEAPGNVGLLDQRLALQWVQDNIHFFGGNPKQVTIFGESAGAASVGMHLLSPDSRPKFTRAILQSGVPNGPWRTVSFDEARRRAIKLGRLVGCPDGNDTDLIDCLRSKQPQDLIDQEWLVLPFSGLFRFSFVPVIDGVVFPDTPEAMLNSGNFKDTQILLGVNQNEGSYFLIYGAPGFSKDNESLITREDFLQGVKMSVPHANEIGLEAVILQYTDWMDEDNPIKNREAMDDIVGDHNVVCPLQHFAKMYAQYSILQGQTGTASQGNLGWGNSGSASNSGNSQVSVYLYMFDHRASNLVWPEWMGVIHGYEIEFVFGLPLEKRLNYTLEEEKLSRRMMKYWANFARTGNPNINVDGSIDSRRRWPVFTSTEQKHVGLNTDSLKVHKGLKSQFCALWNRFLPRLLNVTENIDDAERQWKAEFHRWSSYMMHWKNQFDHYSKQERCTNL
T3 sequence (P81908 whole entry): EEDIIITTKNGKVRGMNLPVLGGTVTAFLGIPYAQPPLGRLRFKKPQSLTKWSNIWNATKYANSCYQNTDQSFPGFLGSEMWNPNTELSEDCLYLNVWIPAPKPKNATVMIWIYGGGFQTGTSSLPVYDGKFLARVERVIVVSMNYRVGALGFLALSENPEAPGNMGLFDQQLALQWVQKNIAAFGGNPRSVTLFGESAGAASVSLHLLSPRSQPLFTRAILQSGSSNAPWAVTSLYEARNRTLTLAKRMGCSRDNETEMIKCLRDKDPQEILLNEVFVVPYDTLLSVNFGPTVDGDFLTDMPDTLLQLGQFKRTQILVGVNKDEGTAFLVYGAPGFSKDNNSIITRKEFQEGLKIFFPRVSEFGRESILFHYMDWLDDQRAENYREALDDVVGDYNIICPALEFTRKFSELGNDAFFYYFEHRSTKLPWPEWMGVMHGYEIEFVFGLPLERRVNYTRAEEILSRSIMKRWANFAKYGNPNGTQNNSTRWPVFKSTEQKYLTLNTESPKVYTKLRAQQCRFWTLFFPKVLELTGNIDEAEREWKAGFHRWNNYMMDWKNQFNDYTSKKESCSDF
T1 sequence (P56817 46-501): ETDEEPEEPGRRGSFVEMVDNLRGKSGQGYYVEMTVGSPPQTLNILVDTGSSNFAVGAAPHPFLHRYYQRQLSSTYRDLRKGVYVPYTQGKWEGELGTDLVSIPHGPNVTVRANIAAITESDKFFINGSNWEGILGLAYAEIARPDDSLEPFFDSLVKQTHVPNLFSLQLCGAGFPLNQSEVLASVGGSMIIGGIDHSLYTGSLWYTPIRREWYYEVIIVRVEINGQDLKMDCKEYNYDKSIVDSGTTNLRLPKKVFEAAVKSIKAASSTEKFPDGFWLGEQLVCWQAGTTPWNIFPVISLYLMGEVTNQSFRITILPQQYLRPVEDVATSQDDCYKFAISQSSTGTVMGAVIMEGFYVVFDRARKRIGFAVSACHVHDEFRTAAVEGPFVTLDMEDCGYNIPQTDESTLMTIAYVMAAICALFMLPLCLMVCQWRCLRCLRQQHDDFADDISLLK

Row | SMILES | IC50 [1] | IC50 [2, 20] | IC50 [3, 21] | LD50 Based on MTT Assay, SY-SY5Y [4] | LD50 Based on MTT Assay, C6 [5] | LD50 Based on MTT Assay, NIH3T3 [6] | LD50 Based on MTT Assay, B16F10 [7] | LD50, cell lines tested [8] | BBB permeation class ([12]; PAMPA-BBB) | other results
1 | Cc1cc2c(c(C)c1CCO)C(=O)C(C)(C)C2O (stereo in doubt) [(3R)-Pterosin D, (3R)-pterosin D] | 92.5 ± 7 µM | 68.7 ± 3.7 µM | > 125 µM | >5,000 µM | >5,000 µM | >5,000 µM | >5,000 µM | above 5 mM | – | IC50 BChE ([3]; mean ± S.D. of three experiments): inactive at the concentrations tested
2 | Cc1cc2c(c(C)c1CCOC1OC(CO)C(O)C(O)C1O)C(=O)C(C)C2 [(2R)-Pteroside B, (2R)-pteroside B] | 18 ± 2.8 µM | 2.55 ± 0.23 µM | 62 ± 0.71 µM | >5,000 µM | >5,000 µM | >5,000 µM | >5,000 µM | above 5 mM | very low BBB permeability | Inhibition type BACE1 [9]: Noncompetitive; Ki [9]: 23.1 µM; Inhibition type AChE [10]: Mixed-type; Ki [10]: 4.89 µM; Inhibition type BChE [11]: Mixed-type; Ki [11]: 22.6 µM; Papp at 4 h, 25 µg/mL [12]: 0.48 ± 0.29 ×10⁻⁶ cm/s
3 | Cc1cc2c(c(C)c1CCOC1OC(CO)C(O)C(O)C1O)C(=O)C(C)(CO)C2 [(2S)-Pteroside A, (2S)-pteroside A] | 84.6 ± 6 µM | – | – | >5,000 µM | >5,000 µM | >5,000 µM | >5,000 µM | above 5 mM | – | –
4 | Cc1c(CCO)c(CO)cc2c1C(=O)[C@@H](C)C2 [(2S)-Pterosin P, (2S)-pterosin P] | 67.1 ± 7.7 µM | – | – | >5,000 µM | >5,000 µM | >5,000 µM | >5,000 µM | above 5 mM | high BBB permeation | IC50 [2]: 17.8 ± 0.62 µM; IC50 [3]: 55.9 ± 5.6 µM; log Pe ([12]; PAMPA-BBB): -5.10; Papp at 4 h, 25 µg/mL [12]: 7.92 ± 0.36 ×10⁻⁶ cm/s
5 | Cc1cc2c(c(C)c1CCOC1OC(CO)C(O)C(O)C1O)C(=O)C(C)(C)C2O [(3S)-Pteroside D, (3S)-pteroside D] | 10.7 ± 1.5 µM | 27.4 ± 1.2 µM | 19.3 ± 0.17 µM | 1,320 ± 86 µM | >5,000 µM | >5,000 µM | >5,000 µM | – | very low BBB permeability | Inhibition type BACE1 [9]: Mixed-type; Ki [9]: 16.5 µM; Inhibition type AChE [10]: Mixed-type; Ki [10]: 23.1 µM; Inhibition type BChE [11]: Mixed-type; Ki [11]: 19.7 µM
6 | CC#Cc1cncc(-c2ccc3c(c2)[C@@]2(N=C(C)C(N)=N2)[C@]2(CC[C@H](OC)CC2)C3)c1 [AZD3293] | – | – | – | – | – | – | – | – | – | Ki [13]: 0.0004 µM
7 | O=c1c(O)c(-c2ccc(O)c(O)c2)oc2cc(O)cc(O)c12 [Quercetin, quercetin] | – | – | – | – | – | – | – | – | – | IC50 [14]: […]; Influence on BChE activity [15]: negligible influence; log Pe [16]: approximately −7; Effect on AD pathology [17]: effectively ameliorated AD pathology and tauopathy
8 | Cc1cc2c(c(C)c1CCO)C(=O)C(C)(CO)C2 (stereo not drawn) [pterosin A] | – | – | – | – | – | – | – | – | – | Oral bioavailability ([18]; diabetes animal experiment ref 29, 30): good oral bioavailability; Adverse effects [18, 22]: no significant adverse effects; Effect on glucose intolerance and insulin resistance [18, 22]: effectively improving glucose intolerance and insulin resistance
9 | Cc1cc2c(c(C)c1CCO)C(=O)[C@H](C)C2 [pterosin B] | – | – | – | – | – | – | – | – | – | Adverse effects [19]: without adverse effects; Effect on osteoarthritis [19]: ameliorating osteoarthritis
